{"source": "patent US6787318B1", "about": "“Assay for evaluating the therapeutic effectiveness of agents in reducing Alzheimer's disease pathology” (Roskamp Research Institute, LLC, priority 1999, dated 2004)", "key": {"TNF-α [1]": {"test_system": "TNF-α", "test": "TNF-α release from cultured microglia, TNF-α ELISA", "format": "cell-based, mice", "settings": "500 nM, primary cultured microglia"}, "HAEC": {"test_system": "HAEC", "test": "Cytotoxicity in HAEC, LDH release assay", "format": "cell-based, human", "settings": "500 nM, 48 hours", "description": "Previous reports have shown that overexpression of amyloid precursor protein or exogenous addition of Aβ peptides can have cytotoxic effects on cultured endothelial cells.\nIn order to determine if ligation of endothelial CD40 could result in production of pro-inflammatory cytokines, IL-1β was measured following treatment with IFN-γ or Aβ peptides. […] There was not observe a significant induction of endothelial cell death by LDH release assay between treatment groups during the time course examined by IL-1β release assay (by One-way ANOVA, F(6,41)=0.322, p=0.921), supporting the hypothesis that stimulation of the CD40 pathway in endothelial cells results in an early pro-inflammatory cascade which later promotes cell injury, rather than induce cytotoxicity acutely."}, "[2]": {"test_system": "primary cultured cortical neurons", "test": "Primary cultured microglia-mediated neuronal cell injury (micrographs, 51Cr release, LDH release)", "format": "cell-based, mice", "settings": "primary cultured microglia with cortical neurons", "source_text": "CD45 positive cells (brown) are microglia, while neurofilament L-staining cells (red) are neurons. […] Results shown are from one of three independent experiments with similar results; FIG. 2E is a graph showing primary cultured microglia-mediated neuronal cell injury as evidenced by ^51Cr release. Data are reported as mean ^51Cr release values±1 SEM and n=9 for each condition presented. […] N=9 for each condition presented.\nHaving shown that Aβ peptides activate microglia through the CD40 pathway, it was then investigated whether activation of Aβ-pretreated microglia by ligation of CD40 could mediate neuronal cell injury (23,24)."}, "IL-1β [3]": {"test_system": "IL-1β", "test": "IL-1β secretion from HAEC, ELISA", "format": "cell-based, human", "settings": "24 hours", "description": "(§1) The assay for either IL-1β or IFN-γ was performed in strict accordance with the manufacturer's instructions for the respective assay kits.\n(§2) The resulting cell culture media were assayed for IL-1β or IFN-γ using ELISA. […] The lowest effective concentration was determined to be 100 nM for IFN-γ ([…]). The lowest effective concentration was determined to be 100 nM for IFN-γ (p<0.01) and 1 μM for IL-1β (p<0.01)."}, "CD40 [4]": {"test_system": "CD40", "test": "CD40 cell ELISA on cultured HAEC", "format": "cell-based, human", "settings": "Aβ 50 nM to 10,000 nM; IFN-γ 5 to 500 U/mL; 48 hours", "description": "To determine if CD40 expression on cultured HAEC was IFN-γ or Aβ dose-dependent, CD40 cell ELISA assays were performed according to published procedures. Briefly, cultured HAEC were plated at 2×10^4 cells/well in flat-bottom, 96-well tissue culture plates (Nunc-Immuno™ Plate, Denmark). […] Other HAEC were treated with a dose range (5 U/mL to 500 U/mL) of IFN-γ. […] Forty-eight hours post-treatment, plates were fixed overnight at 4° C. in 1% paraformaldehyde diluted in 1×PBS, washed three times with wash buffer (0.5% Tween 20 in 1×PBS), and subsequently incubated with […] of blocking buffer (10% fetal bovine serum in wash buffer) for one hour at 37° C. Cells were then treated with purified anti-human CD40 antibody ([…], PharMingen, Los Angeles, Calif.) in […] of blocking buffer for one hour at 37° C. Plates were washed four times with wash buffer. Biotinylated anti-mouse IgG1 (PharMingen, Los Angeles, Calif.; 1:2,000 dilution in blocking buffer, […]) was added and incubated for one hour at 37° C., followed by the addition of […] of a 1:3,000 dilution of HRP-Streptavidin (ZYMED, San Francisco, Calif.) for thirty minutes at 37° C. Plates were washed 4× with wash buffer and developed for twenty minutes at room temperature using the 3, 3′, 5, 5′-tetramethylbenzidine (TMB) one-step substrate system (DAKO, Carpinteria, Calif.) followed by the addition of 100 μL/well of 2N H2SO4 to stop the reaction. Absorbance was measured at 450 nm using a microplate spectrophotometer (SPECTRAmax 250, Molecular Devices, Sunnyvale, Calif.)."}, "CD40 [5]": {"test_system": "CD40", "test": "CD40 expression in Aβ-treated N9 and N60 microglial cells, flow cytometry", "format": "cell-based, murine", "source_text": "Mononuclear cells from AD patients secrete markedly higher levels of IFN-γ compared to age-matched controls (18)."}, "IFN-γ": {"test_system": "IFN-γ", "test": "IFN-γ secretion from HAEC, ELISA", "format": "cell-based, human", "settings": "24 hours", "description": "as §1\nActivation of CD40 signalling can be achieved by stimulation with either CD40L or certain anti-CD40 mAbs. Since synthetic CD40L is not commercially available, one of the anti-CD40 mAbs (clone 3/23), which has been reported to activate CD40 signalling, was used to mimic the effect of interaction of CD40-CD40L. All Aβ-treated cells were incubated with 1 μg/ml anti-CD40 mAb […]) for four hours followed by CELISA.\nas §2"}, "IL-1β [6]": {"test_system": "IL-1β", "test": "Human IL-1β release ELISA, HAEC with or without CD40 ligation", "format": "cell-based", "description": "To examine if endothelial CD40 would be functional, cultured HAEC were plated at 5×10^4 cells/well in 6-well tissue culture plates (Nunc-Immuno™ Plate, Denmark) and incubated at 37° C. with human CD40L recombinant protein (CD40L, 0.5 ug/mL, kindly provided by Dr. Jean-Yves Bonnefoy, Glaxo Institute for Molecular Biology, Geneva) in fresh cultured media for eight hours, and cell-free supernatants were collected for IL-1β release assay. The assay for human IL-1β was performed in strict accordance with the manufacturer's instruction using the human Predicta™ IL-1β Kit (Genzyme). Absorbance at 450 nm was measured using a microplate spectrophotometer (SPECTRAmax 250, Molecular Devices, Sunnyvale, Calif.).\nA second group of cells was subjected to these same treatments and incubated with CD40L ([…]) for eight hours following the initial 48 hour treatment period. IL-1β release was then quantified using a human IL-1β ELISA kit as described in materials and methods."}, "CD40 [7]": {"test_system": "CD40", "test": "CD40 expression in primary cultured microglia", "format": "cell-based, mice", "settings": "microglia from control littermates exposed to exogenous peptide, vs Aβ40-1 or sAPPα-695"}, "cortical neurons": {"test_system": "cortical neurons", "test": "Cortical neurons incubated with treated N9 microglia, photomicrographs", "format": "cell-based, murine", "settings": "Aβ1-42 250 nM, CD40L 0.5 μg/ml"}, "TNF-α [8]": {"test_system": "TNF-α", "settings": "high doses, literature (Meda et al.); cited from earlier work"}}, "note": "Entries after “also recorded” stand apart in the source; their conditions may differ.", "data": [{"substance": "Aβ1-42: amyloid β peptide 1-42, freshly solubilized", "values": [{"measurement": "TNF-α release, peptide alone", "setting": "TNF-α [1]", "value": "does not induce TNF-α release"}, {"measurement": "cell injury, LDH release", "setting": "HAEC", "value": "no significant induction of cell injury"}, {"measurement": "neuronal degeneration / injury in micrographs", "setting": "[2]", "value": "not detectable"}, {"measurement": "lowest effective concentration for IL-1β secretion", "setting": "IL-1β [3]", "value": 1, "unit": "µM"}, {"measurement": "IL-1β secretion, dose dependence", "setting": "IL-1β [3]; increasing concentrations", "value": "increases the secretion of IL-1β and IFN-γ in a dose-dependent manner"}, {"measurement": "dose dependence of endothelial CD40", "setting": "CD40 [4]", "value": "marked increase in endothelial CD40 which is dose-dependent"}, {"measurement": "CD40 expression on cultured microglial cells", "setting": "CD40 [5]; 250 nM freshly solubilized peptide, N9 and N60 cells, vs control peptide or Aβ-free", "value": "significantly induce CD40 expression"}, {"measurement": "dose dependence of microglial CD40 expression", "setting": "CD40 [5]; from 50 to 1250 nM, N9 cells", "value": "induces microglial CD40 expression in a dose-dependent manner; also recorded: induced microglial CD40 expression in a dose dependent manner"}, {"measurement": "lowest effective concentration for IFN-γ secretion", "setting": "IFN-γ", "value": 100, "unit": "nM"}, {"measurement": "IFN-γ secretion, dose dependence", "setting": "IFN-γ; increasing concentrations", "value": "increases the secretion of IL-1β and IFN-γ in a dose-dependent manner"}, {"measurement": "IL-1β release following CD40 ligation", "setting": "IL-1β [6]; 48 hour pre-treatment, then CD40L for eight hours", "value": "synergistic effect"}, {"measurement": "IL-1β release in the absence of CD40L stimulation", "setting": "IL-1β [6]; Aβ 500 nM, IFN-γ 10 U/mL, 48 hours", "value": "not sufficient to elicit IL-1β"}, {"measurement": "CD40 expression in primary cultured microglia", "setting": "CD40 [7]", "value": "CD40 expression is increased"}, {"measurement": "change in cortical neurons", "setting": "cortical neurons", "value": "no change in cortical neurons"}, {"measurement": "dose able to produce increased TNF-α production in microglial cells", "setting": "TNF-α [8]", "value": "> 11", "unit": "µM"}]}]}
